Results published in ChEMBL document CHEMBL1155546, “Rapid synthesis of an array of trisubstituted urea-based soluble epoxide hydrolase inhibitors facilitated by a novel solid-phase method” (Bioorg Med Chem Lett, 2010).

How the values were obtained:
[1] = molecular target: T1, Bifunctional epoxide hydrolase 2 (Homo sapiens, UniProt P34913); test: Inhibition of human soluble epoxide hydrolase assessed as [2-3H]trans-1,3-diphenyl propylene oxide hydrolysis by cellular assay
T1 sequence (P34913 whole entry): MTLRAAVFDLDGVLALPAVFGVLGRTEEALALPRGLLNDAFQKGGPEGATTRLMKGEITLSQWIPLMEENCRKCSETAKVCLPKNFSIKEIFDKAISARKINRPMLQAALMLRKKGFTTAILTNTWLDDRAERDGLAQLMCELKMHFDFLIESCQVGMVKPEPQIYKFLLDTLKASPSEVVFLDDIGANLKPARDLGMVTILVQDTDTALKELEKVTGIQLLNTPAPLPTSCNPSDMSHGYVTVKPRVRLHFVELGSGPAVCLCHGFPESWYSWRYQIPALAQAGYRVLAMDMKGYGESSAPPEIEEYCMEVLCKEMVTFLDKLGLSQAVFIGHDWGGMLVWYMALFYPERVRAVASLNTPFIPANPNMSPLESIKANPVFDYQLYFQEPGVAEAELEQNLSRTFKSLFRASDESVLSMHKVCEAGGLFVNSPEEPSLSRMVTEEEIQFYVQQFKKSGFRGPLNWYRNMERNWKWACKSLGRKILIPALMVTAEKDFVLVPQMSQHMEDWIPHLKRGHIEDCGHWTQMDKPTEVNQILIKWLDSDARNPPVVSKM

[2] = molecular target: T1, Bifunctional epoxide hydrolase 2; test: Inhibition of human soluble epoxide hydrolase
Cytochrome P450 2J2 = molecular target: T2, Cytochrome P450 2J2 (Homo sapiens, UniProt P51589); test: Inhibition of CYP2J2
T2 sequence (P51589 whole entry): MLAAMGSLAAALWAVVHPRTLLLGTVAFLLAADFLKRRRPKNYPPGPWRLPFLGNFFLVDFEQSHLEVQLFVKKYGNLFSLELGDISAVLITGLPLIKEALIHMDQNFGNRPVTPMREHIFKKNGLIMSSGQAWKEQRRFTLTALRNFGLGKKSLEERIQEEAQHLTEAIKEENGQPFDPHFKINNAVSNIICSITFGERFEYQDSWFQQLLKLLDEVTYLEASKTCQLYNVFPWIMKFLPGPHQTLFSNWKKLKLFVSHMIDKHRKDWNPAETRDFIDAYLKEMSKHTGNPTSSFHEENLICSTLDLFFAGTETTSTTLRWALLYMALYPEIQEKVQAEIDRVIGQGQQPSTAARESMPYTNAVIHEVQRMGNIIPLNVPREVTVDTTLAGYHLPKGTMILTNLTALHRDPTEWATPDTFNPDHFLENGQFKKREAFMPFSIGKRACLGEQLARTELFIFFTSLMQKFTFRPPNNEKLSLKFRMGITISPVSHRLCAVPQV

Cytochrome P450 2C9 = Cytochrome P450 2C9 (Homo sapiens, UniProt P11712); test: Inhibition of CYP2C9; format: ADME
Cytochrome P450 2C9, sequence (P11712 whole entry): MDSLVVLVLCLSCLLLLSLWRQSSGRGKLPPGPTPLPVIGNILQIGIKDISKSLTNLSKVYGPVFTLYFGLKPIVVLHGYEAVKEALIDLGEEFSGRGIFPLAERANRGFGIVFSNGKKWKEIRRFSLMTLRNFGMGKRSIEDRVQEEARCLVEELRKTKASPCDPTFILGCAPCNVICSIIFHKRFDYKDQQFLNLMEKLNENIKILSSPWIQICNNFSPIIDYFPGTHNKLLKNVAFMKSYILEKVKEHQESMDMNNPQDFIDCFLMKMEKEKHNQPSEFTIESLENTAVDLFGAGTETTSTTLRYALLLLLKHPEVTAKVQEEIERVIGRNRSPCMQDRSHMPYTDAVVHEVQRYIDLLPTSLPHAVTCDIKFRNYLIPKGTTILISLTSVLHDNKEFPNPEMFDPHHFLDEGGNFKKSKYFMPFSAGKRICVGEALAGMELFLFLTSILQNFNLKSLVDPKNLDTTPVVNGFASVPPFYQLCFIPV

[3] = Half life in human liver microsome; format: ADME; conditions: liver microsomes
[4] = Half life in mouse liver microsome; format: ADME; conditions: liver microsomes

| IC50 [1] | IC50 [2] | IC50 (Cytochrome P450 2C9) | half-life [3] | half-life [4] | Structure (SMILES) | IC50 (Cytochrome P450 2J2) |
| --- | --- | --- | --- | --- | --- | --- |
| 40 nM | 4 nM | 10200 nM | 54 min | 10 min | O=C(NCc1ccccc1OC(F)(F)F)N1CCC(Oc2ncccn2)CC1 | 2000 nM |
| 13 nM | 1 nM | 2900 nM | 7 min | 2 min | O=C(NCCC(c1ccc(F)cc1)c1ccc(F)cc1)N1CCC(Oc2cnccn2)CC1 | – |
| 4 nM | 3 nM | 8100 nM | 2 min | 2 min | O=C(NCCC(c1ccc(F)cc1)c1ccc(F)cc1)N1CCC(c2cnccn2)C1 (stereo not drawn) | – |
| 22 nM | 9 nM | 100 nM | 42 min | 25 min | O=C(NCc1ccc(Cl)cc1Cl)N1CCC(Oc2ccncc2)CC1 | 2700 nM |

The next lines start with the compound.

| Structure (SMILES) | IC50 [1] | IC50 [2] | IC50 (Cytochrome P450 2C9) | half-life [3] | half-life [4] | IC50 (Cytochrome P450 2J2) |
| --- | --- | --- | --- | --- | --- | --- |
| O=C(NCc1ccccc1OC(F)(F)F)N1CCC(Oc2ccncc2)CC1 | – | 14 nM | 800 nM | 34 min | 42 min | 10000 nM |
| O=C(NCc1ccccc1OC(F)(F)F)N1CCC(c2ccncc2)C1 (stereo not drawn) | 76 nM | 7 nM | 300 nM | 23 min | 42 min | 10000 nM |
